Calls of active or inactive are those of the source.
Legend:
[1] = test system: Candida albicans; test: Candida growth effect without fluconazole – C. albicans CaCi-2, dry powder, counter-screen for antifungal drug resistance project, dose response (AID 488802); assay type: functional, organism-based
[2] = test system: NIH3T3; test: mammalian cell viability counter-check – Alamar Blue, fluconazole, dry powder, cytotoxicity control for antifungal drug resistance project, dose response (AID 488809); assay type: functional, cell-based; conditions: Mus musculus
[3] = test system: Candida albicans; test: antifungal activity against resistant Candida strain – CaCi-8, fluconazole, Alamar Blue, dry powder, dose response (AID 488807); assay type: functional, organism-based
[4] = THP-1 cell cytotoxicity, cytotoxicity control, set 4 (AID 504911); assay type: functional; conditions: Mycobacterium tuberculosis
[5] = Vero cell cytotoxicity, cytotoxicity control for M. tuberculosis inhibitor project, purified and synthesized samples, set 3 (AID 504684); assay type: functional
[6] = THP-1 cell cytotoxicity, dose response, cytotoxicity control, set 3 (AID 504852); assay type: functional; conditions: Mycobacterium tuberculosis
[7] = A Cell Based Secondary Assay to Explore Cytotoxicity in THP-1 Cells of Compounds that Modulate Mycobacterium tuberculosis in Media Containing Glycerol versus Media without Glycerol (2).; assay type: functional
[8] = Vero cell cytotoxicity, dose response, cytotoxicity control for M. tuberculosis growth inhibitor project, Vero cells, purified and synthesized compounds, set 5 (AID 504909); assay type: functional; conditions: Mycobacterium tuberculosis
[9] = Vero cell cytotoxicity, dose response, cytotoxicity control for M. tuberculosis growth inhibitor project, Vero cells, purified and synthesized compounds, set 4 (AID 504854); assay type: functional; conditions: Mycobacterium tuberculosis
[10] = molecular target: T1, Orexin/Hypocretin receptor type 1 (Homo sapiens, UniProt O43613); test: Homogeneous Time Resolved Fluorescence (HTRF)-based cell-based high throughput dose response assay for antagonists of the orexin 1 receptor (OX1R; HCRTR1). [Related pubchem assays (depositor defined):AID434989, AID435008, AID463079, AID485270, AID492963, AID492964, AID492965, AID493232, AID504717, AID504718]; assay type: functional
T1 sequence (O43613 whole entry): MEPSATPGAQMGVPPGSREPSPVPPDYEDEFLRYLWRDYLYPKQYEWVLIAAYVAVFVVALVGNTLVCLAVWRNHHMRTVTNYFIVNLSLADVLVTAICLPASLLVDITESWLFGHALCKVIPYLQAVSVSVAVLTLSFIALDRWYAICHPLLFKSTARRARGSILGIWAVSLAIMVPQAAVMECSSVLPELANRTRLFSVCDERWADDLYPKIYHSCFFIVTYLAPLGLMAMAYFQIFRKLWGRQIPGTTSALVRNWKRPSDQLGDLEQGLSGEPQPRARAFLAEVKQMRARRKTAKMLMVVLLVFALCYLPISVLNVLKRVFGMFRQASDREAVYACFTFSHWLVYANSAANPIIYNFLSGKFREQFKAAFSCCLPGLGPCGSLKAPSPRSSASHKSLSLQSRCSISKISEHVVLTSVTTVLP

[11] = molecular target: T1, Orexin/Hypocretin receptor type 1; test: Fluorescence-based cell-based high throughput dose response assay for antagonists of the orexin 1 receptor (OX1R; HCRTR1). [Related pubchem assays (depositor defined):AID434989, AID435008, AID463079, AID485270, AID492963, AID492964, AID492965, AID493232, AID504717, AID504718]; assay type: functional
[12] = molecular target: T2, Orexin receptor type 2 (Homo sapiens, UniProt O43614); test: Counterscreen assay for antagonists of the orexin 1 receptor (OX1R; HCRTR1): Homogeneous Time Resolved Fluorescence (HTRF)-based cell-based dose response assay for antagonists of the orexin 2 receptor (OX2R; HCRTR2), run by assay provider.; assay type: functional
T2 sequence (O43614 whole entry): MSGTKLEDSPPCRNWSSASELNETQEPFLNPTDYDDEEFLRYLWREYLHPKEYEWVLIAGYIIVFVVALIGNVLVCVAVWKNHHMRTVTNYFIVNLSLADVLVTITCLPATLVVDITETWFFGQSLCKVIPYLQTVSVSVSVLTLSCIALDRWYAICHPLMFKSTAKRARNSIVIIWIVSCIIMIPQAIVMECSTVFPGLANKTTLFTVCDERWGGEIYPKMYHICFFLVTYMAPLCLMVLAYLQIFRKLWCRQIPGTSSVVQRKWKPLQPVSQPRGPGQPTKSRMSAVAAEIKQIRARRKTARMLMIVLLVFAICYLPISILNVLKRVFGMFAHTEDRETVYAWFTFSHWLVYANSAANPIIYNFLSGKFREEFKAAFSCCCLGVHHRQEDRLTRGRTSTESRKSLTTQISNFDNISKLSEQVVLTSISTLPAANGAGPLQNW

[13] = Counterscreen for antagonists of the orexin 1 receptor (OX1R; HCRTR1): Fluorescence-based cell-based high throughput dose response assay to identify antagonists of the parental CHO cell line. [Related pubchem assays (depositor defined):AID434989, AID435008, AID463079, AID485270, AID492963, AID492964, AID492965, AID493232, AID504699, AID504701]; assay type: functional
[14] = viability of uninfected HEp-2 cells – cell-based, HTS, cytotoxicity control for RSV inhibitor project, dose response (AID 2410); assay type: functional; conditions: human respiratory syncytial virus
[15] = molecular target: T2, Orexin receptor type 2; test: Counterscreen assay for antagonists of the orexin 1 receptor (OX1R; HCRTR1): Fluorescence-based cell-based dose response assay for antagonists of the orexin 2 receptor (OX2R; HCRTR2), run by assay provider.; assay type: functional
[16] = test system: CHO-K1; test: Counterscreen for antagonists of the orexin 1 receptor (OX1R; HCRTR1): Homogeneous time resolved fluorescence (HTRF)-based cell-based dose response assay to identify antagonists of the parental CHO-K1 cell line. [Related pubchem assays (depositor defined):AID434989, AID435008, AID463079, AID485270, AID492963, AID492964, AID492965, AID493232, AID504699, AID504701]; assay type: functional; conditions: Cricetulus griseus;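 also: potency for inhibition of ATP-stimulated IP1 production as antagonists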
[17] = test system: H9c2; test: cells; assay type: functional, cell-based; conditions: Rattus norvegicus, H9c2, Myocardium;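 also: confirmatory concentration-response retest of ultra-high-throughput screening hits for modulation of myocardial damage; cell death induced by hydrogen peroxide oxidative stress; compound pretreatment for 60 min then peroxide exposure for 2 h; potency is for protecting the cells against peroxide damage rather than for killing them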
[18] = molecular target: Cyclin-dependent kinase 8 (Homo sapiens, UniProt P49336); test: Navigating the Kinome. Panel member name: CDK8; assay type: functional
Sequence of Cyclin-dependent kinase 8 (P49336 whole entry): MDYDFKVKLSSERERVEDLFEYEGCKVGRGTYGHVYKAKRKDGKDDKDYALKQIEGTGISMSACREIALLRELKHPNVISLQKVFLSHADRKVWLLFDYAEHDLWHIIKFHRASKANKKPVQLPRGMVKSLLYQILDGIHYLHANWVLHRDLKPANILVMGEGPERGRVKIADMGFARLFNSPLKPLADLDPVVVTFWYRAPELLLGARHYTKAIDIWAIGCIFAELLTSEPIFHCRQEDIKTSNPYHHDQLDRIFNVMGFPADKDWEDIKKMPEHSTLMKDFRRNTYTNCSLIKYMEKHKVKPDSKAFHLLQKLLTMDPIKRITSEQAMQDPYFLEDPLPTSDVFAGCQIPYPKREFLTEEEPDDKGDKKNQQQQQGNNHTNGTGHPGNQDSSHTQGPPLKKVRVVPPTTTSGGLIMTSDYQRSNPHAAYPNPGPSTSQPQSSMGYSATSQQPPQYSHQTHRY

[19] = molecular target: Cytochrome P450 2C9 (Homo sapiens, UniProt P11712)
Sequence of Cytochrome P450 2C9 (P11712 whole entry): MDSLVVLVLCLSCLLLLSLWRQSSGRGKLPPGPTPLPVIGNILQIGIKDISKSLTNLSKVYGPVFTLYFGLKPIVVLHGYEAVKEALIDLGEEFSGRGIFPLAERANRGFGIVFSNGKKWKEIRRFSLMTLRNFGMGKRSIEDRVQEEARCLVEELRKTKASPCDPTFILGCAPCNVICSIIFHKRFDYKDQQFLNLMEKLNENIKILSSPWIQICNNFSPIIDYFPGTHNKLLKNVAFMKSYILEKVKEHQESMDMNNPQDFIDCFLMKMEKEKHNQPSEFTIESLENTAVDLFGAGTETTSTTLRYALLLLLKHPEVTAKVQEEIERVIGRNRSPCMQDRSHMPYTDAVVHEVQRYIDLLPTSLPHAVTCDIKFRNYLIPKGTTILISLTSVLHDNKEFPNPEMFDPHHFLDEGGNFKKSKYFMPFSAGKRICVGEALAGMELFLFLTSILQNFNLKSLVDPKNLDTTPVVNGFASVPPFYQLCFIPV

[20] = molecular target: Cyclin-dependent kinase 9 (Homo sapiens, UniProt P50750); assay type: functional;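 also: value from the CDK9 entry of a kinome-spanning kinase panel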
Sequence of Cyclin-dependent kinase 9 (P50750 whole entry): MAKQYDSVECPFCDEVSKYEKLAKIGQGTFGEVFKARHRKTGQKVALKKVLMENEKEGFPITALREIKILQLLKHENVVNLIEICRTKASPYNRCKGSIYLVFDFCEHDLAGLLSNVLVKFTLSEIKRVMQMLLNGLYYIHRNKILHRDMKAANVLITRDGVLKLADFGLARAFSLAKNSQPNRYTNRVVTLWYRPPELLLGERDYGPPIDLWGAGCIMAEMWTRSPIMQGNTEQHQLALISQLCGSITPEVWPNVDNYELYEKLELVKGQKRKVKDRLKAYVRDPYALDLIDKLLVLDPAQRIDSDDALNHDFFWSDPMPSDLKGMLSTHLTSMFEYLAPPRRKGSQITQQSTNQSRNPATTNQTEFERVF

[21] = molecular target: T3, Sentrin-specific protease 8 (Homo sapiens, UniProt Q96LD8); test: inhibition of human SENP8 cleavage activity – biochemical, luminescence, SAR follow-up (AID 504501); assay type: functional
T3 sequence (Q96LD8 whole entry): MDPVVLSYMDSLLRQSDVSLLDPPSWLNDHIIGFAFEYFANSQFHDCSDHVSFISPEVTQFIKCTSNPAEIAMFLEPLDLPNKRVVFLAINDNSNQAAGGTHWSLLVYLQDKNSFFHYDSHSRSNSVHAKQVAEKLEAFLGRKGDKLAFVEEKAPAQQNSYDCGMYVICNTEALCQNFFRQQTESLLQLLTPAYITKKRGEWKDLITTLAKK

[22] = molecular target: T4, Caspase-3 (Homo sapiens, UniProt P42574); test: SAR Analysis of small molecule inhibitors of Sentrin-specific proteases (SENPs) using a Caspase-3 Selectivity assay. [Related pubchem assays (depositor defined):AID2540, AID2599, AID434973, AID489001]; assay type: functional
T4 sequence (P42574 whole entry): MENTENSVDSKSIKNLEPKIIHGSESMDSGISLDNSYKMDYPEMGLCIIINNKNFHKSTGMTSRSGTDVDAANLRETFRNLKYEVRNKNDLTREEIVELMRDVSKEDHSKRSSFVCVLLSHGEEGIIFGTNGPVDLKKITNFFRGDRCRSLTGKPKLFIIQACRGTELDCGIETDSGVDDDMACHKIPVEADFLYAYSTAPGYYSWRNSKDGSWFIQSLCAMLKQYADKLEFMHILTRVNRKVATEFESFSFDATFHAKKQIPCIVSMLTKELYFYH

[23] = molecular target: T5, Sentrin-specific protease 7 (Homo sapiens, UniProt Q9BQF6); test: inhibition of human SENP7 cleavage activity – biochemical, luminescence, SAR follow-up (AID 504497); assay type: functional
T5 sequence (Q9BQF6 whole entry): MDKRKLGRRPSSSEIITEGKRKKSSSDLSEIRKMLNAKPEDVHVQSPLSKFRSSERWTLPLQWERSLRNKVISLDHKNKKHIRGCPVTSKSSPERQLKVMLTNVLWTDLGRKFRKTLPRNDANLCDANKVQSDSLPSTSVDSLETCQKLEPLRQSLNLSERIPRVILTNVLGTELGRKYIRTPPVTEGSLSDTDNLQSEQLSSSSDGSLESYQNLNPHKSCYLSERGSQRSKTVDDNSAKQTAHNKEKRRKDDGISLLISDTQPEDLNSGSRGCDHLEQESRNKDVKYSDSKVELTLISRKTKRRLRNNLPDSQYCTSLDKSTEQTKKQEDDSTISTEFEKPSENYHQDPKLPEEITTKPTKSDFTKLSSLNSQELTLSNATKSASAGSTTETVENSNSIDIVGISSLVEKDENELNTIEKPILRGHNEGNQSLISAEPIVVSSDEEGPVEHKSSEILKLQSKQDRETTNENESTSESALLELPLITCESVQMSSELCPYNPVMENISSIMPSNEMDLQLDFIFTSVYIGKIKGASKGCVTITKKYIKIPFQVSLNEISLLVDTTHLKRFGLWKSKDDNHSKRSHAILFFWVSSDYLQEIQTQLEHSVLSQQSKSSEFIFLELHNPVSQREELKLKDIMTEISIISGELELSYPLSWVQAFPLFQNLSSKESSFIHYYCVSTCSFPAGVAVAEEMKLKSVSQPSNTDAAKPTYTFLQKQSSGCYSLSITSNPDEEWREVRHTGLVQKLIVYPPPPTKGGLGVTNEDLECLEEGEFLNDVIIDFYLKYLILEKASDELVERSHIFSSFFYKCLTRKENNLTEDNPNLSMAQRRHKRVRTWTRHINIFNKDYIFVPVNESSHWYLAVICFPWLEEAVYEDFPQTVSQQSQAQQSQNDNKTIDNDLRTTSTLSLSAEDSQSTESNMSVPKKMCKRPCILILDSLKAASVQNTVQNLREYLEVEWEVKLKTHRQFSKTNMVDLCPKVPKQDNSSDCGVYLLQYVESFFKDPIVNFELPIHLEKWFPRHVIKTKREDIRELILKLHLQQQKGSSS

[24] = molecular target: T6, Sentrin-specific protease 6 (Homo sapiens, UniProt Q9GZR1); test: SAR Analysis of small molecule inhibitors of Sentrin-specific protease 6 (SENP6) using a Luminescent assay. [Related pubchem assays (depositor defined):AID2582, AID2599]; assay type: functional
T6 sequence (Q9GZR1 whole entry): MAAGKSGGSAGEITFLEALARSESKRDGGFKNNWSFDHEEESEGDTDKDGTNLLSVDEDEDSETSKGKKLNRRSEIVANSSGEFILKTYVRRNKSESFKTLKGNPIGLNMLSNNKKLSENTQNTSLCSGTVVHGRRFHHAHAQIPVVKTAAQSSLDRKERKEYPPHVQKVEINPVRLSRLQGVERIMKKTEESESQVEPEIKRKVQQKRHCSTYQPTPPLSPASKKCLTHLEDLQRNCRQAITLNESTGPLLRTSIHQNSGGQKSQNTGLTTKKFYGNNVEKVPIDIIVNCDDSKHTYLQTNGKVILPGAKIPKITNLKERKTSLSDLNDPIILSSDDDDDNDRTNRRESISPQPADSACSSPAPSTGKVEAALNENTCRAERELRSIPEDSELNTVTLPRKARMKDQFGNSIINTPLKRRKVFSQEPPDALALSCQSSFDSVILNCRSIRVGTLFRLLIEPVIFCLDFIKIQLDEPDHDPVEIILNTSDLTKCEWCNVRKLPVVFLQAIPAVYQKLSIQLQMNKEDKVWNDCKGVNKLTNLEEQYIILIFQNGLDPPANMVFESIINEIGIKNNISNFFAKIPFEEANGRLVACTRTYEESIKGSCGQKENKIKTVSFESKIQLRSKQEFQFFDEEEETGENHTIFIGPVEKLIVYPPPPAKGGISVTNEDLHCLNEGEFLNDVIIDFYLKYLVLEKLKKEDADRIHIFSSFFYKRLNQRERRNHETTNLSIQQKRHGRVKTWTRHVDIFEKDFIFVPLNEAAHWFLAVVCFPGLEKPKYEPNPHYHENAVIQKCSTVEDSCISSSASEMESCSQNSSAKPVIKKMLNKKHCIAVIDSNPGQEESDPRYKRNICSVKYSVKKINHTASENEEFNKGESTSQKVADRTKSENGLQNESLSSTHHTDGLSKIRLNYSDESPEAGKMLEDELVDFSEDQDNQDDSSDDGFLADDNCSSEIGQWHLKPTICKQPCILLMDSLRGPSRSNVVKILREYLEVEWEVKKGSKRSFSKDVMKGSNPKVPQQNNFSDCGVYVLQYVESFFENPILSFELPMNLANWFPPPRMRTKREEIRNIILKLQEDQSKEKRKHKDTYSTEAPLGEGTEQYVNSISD

[25] = molecular target: Glycogen synthase kinase-3 beta (Homo sapiens, UniProt P49841); test: Inhibition of Human GSK-3 beta Activity Measured in Biochemical System Using Microfluidics - 2063-05_Inhibitor_Dose_DryPowder_Activity_Set2. [Related pubchem assays (depositor defined):AID2709]
Sequence of Glycogen synthase kinase-3 beta (P49841 whole entry): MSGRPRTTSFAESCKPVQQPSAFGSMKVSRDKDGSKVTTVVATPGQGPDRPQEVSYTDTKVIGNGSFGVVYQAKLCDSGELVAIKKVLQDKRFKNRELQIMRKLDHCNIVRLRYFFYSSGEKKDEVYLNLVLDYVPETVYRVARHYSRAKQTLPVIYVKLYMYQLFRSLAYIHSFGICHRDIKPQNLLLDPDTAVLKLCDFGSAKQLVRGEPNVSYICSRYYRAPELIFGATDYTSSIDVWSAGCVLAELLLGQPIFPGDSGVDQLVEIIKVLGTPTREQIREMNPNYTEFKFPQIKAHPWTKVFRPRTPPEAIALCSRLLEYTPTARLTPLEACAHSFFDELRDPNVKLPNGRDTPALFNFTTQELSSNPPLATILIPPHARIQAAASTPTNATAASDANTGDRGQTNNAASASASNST

[26] = molecular target: Glycogen synthase kinase-3 alpha (Homo sapiens, UniProt P49840); test: Inhibition of Human GSK-3 alpha Activity Measured in Biochemical System Using Microfluidics - 2063-06_Inhibitor_Dose_DryPowder_Activity_Set2. [Related pubchem assays (depositor defined):AID2709]
Sequence of Glycogen synthase kinase-3 alpha (P49840 whole entry): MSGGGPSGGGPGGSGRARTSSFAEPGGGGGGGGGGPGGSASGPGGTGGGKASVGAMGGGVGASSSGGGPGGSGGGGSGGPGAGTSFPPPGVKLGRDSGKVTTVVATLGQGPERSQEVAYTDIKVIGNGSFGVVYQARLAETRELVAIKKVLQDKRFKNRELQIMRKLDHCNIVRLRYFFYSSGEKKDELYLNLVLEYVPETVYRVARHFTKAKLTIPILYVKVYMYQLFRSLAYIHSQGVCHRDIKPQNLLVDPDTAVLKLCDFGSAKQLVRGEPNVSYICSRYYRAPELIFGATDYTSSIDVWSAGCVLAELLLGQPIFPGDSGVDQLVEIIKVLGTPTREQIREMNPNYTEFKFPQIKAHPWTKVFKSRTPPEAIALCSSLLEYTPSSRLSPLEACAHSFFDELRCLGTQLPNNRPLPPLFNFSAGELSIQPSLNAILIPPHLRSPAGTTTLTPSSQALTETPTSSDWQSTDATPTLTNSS

[27] = molecular target: Cyclin-dependent kinase 5/CDK5 activator 1 (Homo sapiens, UniProt Q00535); test: human CDK5 activity blockade – biochemical, microfluidic mobility shift, dry powder, selectivity assay for GSK-3 alpha inhibitor project, dose response (AID 588430)
Sequence of Cyclin-dependent kinase 5/CDK5 activator 1 (Q00535 whole entry): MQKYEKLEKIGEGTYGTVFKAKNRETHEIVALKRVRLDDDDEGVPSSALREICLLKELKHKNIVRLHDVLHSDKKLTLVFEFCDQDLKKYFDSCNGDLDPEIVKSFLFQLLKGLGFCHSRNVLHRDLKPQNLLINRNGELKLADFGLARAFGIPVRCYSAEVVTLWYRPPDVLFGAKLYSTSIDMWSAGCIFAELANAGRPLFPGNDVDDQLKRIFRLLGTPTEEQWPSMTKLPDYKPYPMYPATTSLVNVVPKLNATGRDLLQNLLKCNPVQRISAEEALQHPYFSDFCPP
Sequence of Cyclin-dependent kinase 5/CDK5 activator 1 (Q15078 whole entry, further chain): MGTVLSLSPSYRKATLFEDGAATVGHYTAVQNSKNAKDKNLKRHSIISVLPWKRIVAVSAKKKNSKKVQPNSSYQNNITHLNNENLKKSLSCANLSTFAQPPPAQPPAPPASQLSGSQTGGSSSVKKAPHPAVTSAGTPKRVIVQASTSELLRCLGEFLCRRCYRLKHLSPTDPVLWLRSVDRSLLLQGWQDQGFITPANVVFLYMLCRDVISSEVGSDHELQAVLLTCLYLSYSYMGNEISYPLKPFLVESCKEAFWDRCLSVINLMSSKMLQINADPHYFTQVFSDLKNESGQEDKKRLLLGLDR

Structure (SMILES): Oc1c2nc3ccc(F)cc3c-2nc2n1CCS2
- AC50 [1]: 37.3 µM (active)
- AC50 [2]: 192 µM (active)
- AC50 [3]: 4.72 µM (active)

Structure (SMILES): CN(C(=O)CSc1nc2ccccc2c(=O)[nH]1)C1CCCCC1
- CC50 [4]: > 97.4 µM (active)
- CC50 [5]: > 100 µM (active)
- CC50 [6]: > 100 µM (active)
- CC50 [7]: > 100 µM (active)
- CC50 [8]: > 100 µM (active)
- CC50 [9]: > 100 µM (active)

Structure (SMILES): Cc1[nH]c2ccccc2c1C(=O)CSc1nc2ccccc2[nH]1
- IC50 [10]: 3.42 µM (active)
- IC50 [11]: 12.5 µM (inactive)
- IC50 [12]: > 50 µM (inactive)
- IC50 [13]: > 49.8 µM (inactive)
- CC50 [14]: > 50 µM (active)
- IC50 [15]: > 88.8 µM (inactive)
- IC50 [16]: > 66.2 µM (inactive)
- IC50 [17]: 32 µM (inactive)

Structure (SMILES): COc1ccc(-c2cc(=O)c3c(O)cc(O)cc3o2)cc1 [ACACETIN]
- Ki [18]: 631 nM (active)
- AC50 [19]: 1.26 µM (inconclusive)
- Ki [20]: 1.26 µM (active)

Structure (SMILES): Cc1ccc(NC(=O)c2ccc(OC3CSC3)cc2)cc1
- IC50 [21]: > 99 µM (inactive)
- IC50 [22]: > 99 µM (inactive)
- IC50 [23]: > 99 µM (inactive)
- IC50 [24]: > 99 µM (inactive)

Structure (SMILES): CCOc1ccccc1/C=N/NC(=O)c1nnn(-c2nonc2N)c1CN1CCC(C)CC1
- AC50 [25]: < 16 nM (active)
- AC50 [26]: 39.2 nM (active)
- AC50 [27]: 65 µM (active)

Source: ChEMBL document CHEMBL1201862, “PubChem BioAssay data set” (2004)
